Data taken from PMC5450158 (European journal of pharmaceutical sciences : official …, 2017).
Read-outs that look alike come from different tables or passages of the source.

Legend:
MRP3 (ABCC3) [1] = target: T1, MRP3 (ABCC3) (Homo sapiens, UniProt O15438); test: inhibition of ATP-dependent [3H]-E217G uptake, membrane vesicles; conditions: 10 μM E217G, 5 min, 37 °C, 100 μM compound, value is remaining uptake
MRP3 (ABCC3) [2] = target: T1, MRP3 (ABCC3); test: as above; type: biochemical

T1 sequence (O15438 whole entry): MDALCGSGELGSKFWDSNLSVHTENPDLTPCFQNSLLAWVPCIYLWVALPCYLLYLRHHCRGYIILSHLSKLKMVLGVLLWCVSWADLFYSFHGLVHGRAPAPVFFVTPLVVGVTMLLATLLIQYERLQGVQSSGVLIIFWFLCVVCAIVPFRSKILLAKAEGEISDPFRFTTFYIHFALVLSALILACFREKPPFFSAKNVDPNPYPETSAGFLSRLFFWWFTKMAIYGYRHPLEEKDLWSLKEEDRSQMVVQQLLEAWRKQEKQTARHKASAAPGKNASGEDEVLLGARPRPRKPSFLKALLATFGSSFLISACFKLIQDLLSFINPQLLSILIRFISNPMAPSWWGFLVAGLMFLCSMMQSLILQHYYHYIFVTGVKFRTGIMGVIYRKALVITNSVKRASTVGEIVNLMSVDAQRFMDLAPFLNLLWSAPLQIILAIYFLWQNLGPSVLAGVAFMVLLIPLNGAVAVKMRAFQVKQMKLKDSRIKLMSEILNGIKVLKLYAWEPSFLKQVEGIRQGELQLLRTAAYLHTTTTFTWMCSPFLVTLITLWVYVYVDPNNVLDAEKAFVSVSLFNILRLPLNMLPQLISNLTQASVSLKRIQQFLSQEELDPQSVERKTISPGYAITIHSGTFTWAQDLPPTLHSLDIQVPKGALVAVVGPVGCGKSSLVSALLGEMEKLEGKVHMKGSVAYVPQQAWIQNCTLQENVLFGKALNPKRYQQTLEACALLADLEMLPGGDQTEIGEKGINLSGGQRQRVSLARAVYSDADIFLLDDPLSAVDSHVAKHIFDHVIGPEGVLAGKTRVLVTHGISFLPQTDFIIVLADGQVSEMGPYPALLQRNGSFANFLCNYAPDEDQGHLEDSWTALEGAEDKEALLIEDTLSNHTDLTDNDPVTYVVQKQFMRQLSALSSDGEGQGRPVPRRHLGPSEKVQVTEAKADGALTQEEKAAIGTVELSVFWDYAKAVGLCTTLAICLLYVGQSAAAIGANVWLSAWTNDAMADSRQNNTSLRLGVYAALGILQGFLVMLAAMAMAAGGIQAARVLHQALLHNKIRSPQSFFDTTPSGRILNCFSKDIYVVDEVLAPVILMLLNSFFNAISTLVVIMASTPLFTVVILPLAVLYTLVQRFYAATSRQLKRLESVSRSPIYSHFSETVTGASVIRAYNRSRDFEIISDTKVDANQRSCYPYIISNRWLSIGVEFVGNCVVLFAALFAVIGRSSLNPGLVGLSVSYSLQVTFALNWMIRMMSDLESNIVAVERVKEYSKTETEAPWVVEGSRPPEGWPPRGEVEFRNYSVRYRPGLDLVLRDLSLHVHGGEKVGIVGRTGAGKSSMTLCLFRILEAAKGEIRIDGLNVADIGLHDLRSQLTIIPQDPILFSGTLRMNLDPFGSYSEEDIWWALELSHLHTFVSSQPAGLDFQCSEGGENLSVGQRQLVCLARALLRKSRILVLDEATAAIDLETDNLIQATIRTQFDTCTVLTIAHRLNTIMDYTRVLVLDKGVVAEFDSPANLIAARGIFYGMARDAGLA

| Structure (SMILES) | E217G uptake, % of control at 100 μM (MRP3 (ABCC3) [1]) [%] | also measured |
| --- | --- | --- |
| NS(=O)(=O)c1cc2c(cc1Cl)NC=NS2(=O)=O [Chlorothiazide] | 37.4 | – |
| COC(=O)N[C@H](C(=O)N[C@@H](Cc1ccccc1)[C@@H](O)CN(Cc1ccc(-c2ccccn2)cc1)NC(=O)[C@@H](NC(=O)OC)C(C)(C)C)C(C)(C)C [atazanavir] | 55.0 | – |
| OCCN(CCO)c1nc(N2CCCCC2)c2nc(N(CCO)CCO)nc(N3CCCCC3)c2n1 [dipyridamole] | 52.1 | – |
| CCCCc1oc2ccc(NS(C)(=O)=O)cc2c1C(=O)c1ccc(OCCCN(CCCC)CCCC)cc1 [dronedarone] | – | IC50 (MRP3 (ABCC3) [2]): 47.4 ± 4.41 µM |
| CCOC(=O)C1=C(C)NC(C)=C(C(=O)OC)C1c1cccc(Cl)c1Cl (stereo not drawn) [felodipine] | 45.8 | – |
| CCc1c(Cl)c(O)c(Cl)c(O)c1C(=O)O[C@H]1[C@H](O)[C@H](OC)[C@H](OC/C2=C\C=C\C[C@H](O)/C(C)=C/[C@H](CC)[C@@H](O[C@@H]3OC(C)(C)[C@@H](OC(=O)C(C)C)[C@H](O)[C@@H]3O)/C(C)=C/C(C)=C/C[C@@H]([C@@H](C)O)OC2=O)O[C@@H]1C [fidaxomicin] | – | IC50 (MRP3 (ABCC3) [2]; 10 μM E217G, ATP, 5 min, 37 °C, 0.1-100 μM inhibitor): 1.83 ± 0.46 µM |
| CC[C@H](C)C(=O)O[C@H]1C[C@@H](C)C=C2C=C[C@H](C)[C@H](CC[C@@H]3C[C@@H](O)CC(=O)O3)[C@H]21 [lovastatin] | 63.5 | – |
| CNC(=O)c1cc(Oc2ccc(NC(=O)Nc3ccc(Cl)c(C(F)(F)F)c3)c(F)c2)ccn1 [regorafenib] | 69.5 | – |
| Cc1ccc(C(=O)Nc2ccc(S(=O)(=O)O)c3cc(S(=O)(=O)O)cc(S(=O)(=O)O)c23)cc1NC(=O)c1cccc(NC(=O)Nc2cccc(C(=O)Nc3cc(C(=O)Nc4ccc(S(=O)(=O)O)c5cc(S(=O)(=O)O)cc(S(=O)(=O)O)c45)ccc3C)c2)c1 [suramin] | – | IC50 (MRP3 (ABCC3) [2]): 3.33 ± 0.41 µM |
